In patent US5843889A, “Glycopeptide antibiotic derivatives” (Eli Lilly and Company, priority 1997, dated 1998) one finds MIC data, which are given here for 21 compounds.

Experiment in all cases: MIC, standard broth micro-dilution assay
Assay type in all cases: cell-based

Test [1] relates to Entercoccus faecalis 276. How it is done: (§1) The formula I compounds have in vitro and in vivo activity against Gram-positive pathogenic bacteria. The MIC's were determined using a standard broth micro-dilution assay.
The test system of test [2] is Entercoccus gallinarum 245. How it is done:
as §1

For test [3], the system named is Entercoccus faecalis 2041. How it is done: as §1

Values after ≈ are worked out from the molar mass of the structure shown.

Consider `CNC(CC(C)C)C(=O)NC1C(=O)NC(CC(N)=O)C(=O)NC2C(=O)NC3C(=O)NC(C(=O)NC(C(=O)O)c4cc(O)cc(O)c4-c4cc3ccc4O)C(OC3CC(C)(N)C(O)C(C)O3)c3ccc(c(Cl)c3)Oc3cc2cc(c3OC2OC(CO)C(O)C(O)C2OC2CC(C)(NCc3c(OC)ccc4ccccc34)C(O)C(C)O2)Oc2ccc(cc2Cl)C1O` (centres unmarked) [Compound 9, 2-methoxy-1-naphthylmethyl], for which, in test [1], the minimum inhibitory concentration (MIC) is 0.26 µg/mL (≈ 0.148 µM).
With `CNC(CC(C)C)C(=O)NC1C(=O)NC(CC(N)=O)C(=O)NC2C(=O)NC3C(=O)NC(C(=O)NC(C(=O)O)c4cc(O)cc(O)c4-c4cc3ccc4O)C(OC3CC(C)(N)C(O)C(C)O3)c3ccc(c(Cl)c3)Oc3cc2cc(c3OC2OC(CO)C(O)C(O)C2OC2CC(C)(NCc3c4ccccc4cc4ccccc34)C(O)C(C)O2)Oc2ccc(cc2Cl)C1O` (centres unmarked) [Compound 13, 9-anthranylmethyl], the MIC in test [1] came to 0.5 µg/mL (≈ 0.28 µM); in test [2], 0.25 µg/mL (≈ 0.14 µM).
Turning to `CNC(CC(C)C)C(=O)NC1C(=O)NC(CC(N)=O)C(=O)NC2C(=O)NC3C(=O)NC(C(=O)NC(C(=O)O)c4cc(O)cc(O)c4-c4cc3ccc4O)C(OC3CC(C)(N)C(O)C(C)O3)c3ccc(c(Cl)c3)Oc3cc2cc(c3OC2OC(CO)C(O)C(O)C2OC2CC(C)(NCc3ccncc3)C(O)C(C)O2)Oc2ccc(cc2Cl)C1O` (centres unmarked) [Compound 26, 4-pyridylmethyl], the MIC in test [1] was not above 0.06 µg/mL.
Regarding `CNC(CC(C)C)C(=O)NC1C(=O)NC(CC(N)=O)C(=O)NC2C(=O)NC3C(=O)NC(C(=O)NC(C(=O)O)c4cc(O)cc(O)c4-c4cc3ccc4O)C(OC3CC(C)(N)C(O)C(C)O3)c3ccc(c(Cl)c3)Oc3cc2cc(c3OC2OC(CO)C(O)C(O)C2OC2CC(C)(NCc3ccnc4ccccc34)C(O)C(C)O2)Oc2ccc(cc2Cl)C1O` (centres unmarked) [Compound 27, 4-quinolylmethyl], the MIC in test [1] and in test [2] was 0.5 µg/mL (≈ 0.288 µM) each time.
Consider `CNC(CC(C)C)C(=O)NC1C(=O)NC(CC(N)=O)C(=O)NC2C(=O)NC3C(=O)NC(C(=O)NC(C(=O)O)c4cc(O)cc(O)c4-c4cc3ccc4O)C(OC3CC(C)(N)C(O)C(C)O3)c3ccc(c(Cl)c3)Oc3cc2cc(c3OC2OC(CO)C(O)C(O)C2OC2CC(C)(NCc3ccc(C(F)(F)F)cc3)C(O)C(C)O2)Oc2ccc(cc2Cl)C1O` (centres unmarked) [Compound 37, 4-trifluoromethylbenzyl], for which the MIC in test [1] was 1 µg/mL (≈ 0.571 µM).
On the same count and under the same terms, the result for `CNC(CC(C)C)C(=O)NC1C(=O)NC(CC(N)=O)C(=O)NC2C(=O)NC3C(=O)NC(C(=O)NC(C(=O)O)c4cc(O)cc(O)c4-c4cc3ccc4O)C(OC3CC(C)(N)C(O)C(C)O3)c3ccc(c(Cl)c3)Oc3cc2cc(c3OC2OC(CO)C(O)C(O)C2OC2CC(C)(NCc3ccc(OCCCC#N)cc3)C(O)C(C)O2)Oc2ccc(cc2Cl)C1O` (centres unmarked) [Compound 55, 4-[3-cyanopropoxy]benzyl] reads 0.5 µg/mL (≈ 0.283 µM).
With `CNC(CC(C)C)C(=O)NC1C(=O)NC(CC(N)=O)C(=O)NC2C(=O)NC3C(=O)NC(C(=O)NC(C(=O)O)c4cc(O)cc(O)c4-c4cc3ccc4O)C(OC3CC(C)(N)C(O)C(C)O3)c3ccc(c(Cl)c3)Oc3cc2cc(c3OC2OC(CO)C(O)C(O)C2OC2CC(C)(NCCc3ccc(Oc4ccccc4)cc3)C(O)C(C)O2)Oc2ccc(cc2Cl)C1O` (centres unmarked) [Compound 63, 4-phenoxyphenethyl], the MIC in test [1] was 0.5 µg/mL (≈ 0.28 µM); in test [2], 8 µg/mL (≈ 4.47 µM).
As for `CNC(CC(C)C)C(=O)NC1C(=O)NC(CC(N)=O)C(=O)NC2C(=O)NC3C(=O)NC(C(=O)NC(C(=O)O)c4cc(O)cc(O)c4-c4cc3ccc4O)C(OC3CC(C)(N)C(O)C(C)O3)c3ccc(c(Cl)c3)Oc3cc2cc(c3OC2OC(CO)C(O)C(O)C2OC2CC(C)(NCCc3cccc(OCc4ccccc4)c3)C(O)C(C)O2)Oc2ccc(cc2Cl)C1O` (centres unmarked) [Compound 69, 3-benzyloxyphenethyl], the MIC in test [1] amounted to 0.5 µg/mL (≈ 0.277 µM); in test [2], 8 µg/mL (≈ 4.44 µM).
For `CCc1ccc(-c2ccc(CNC3(C)CC(OC4C(Oc5c6cc7cc5Oc5ccc(cc5Cl)C(OC5CC(C)(N)C(O)C(C)O5)C5NC(=O)C(NC(=O)C7NC(=O)C(CC(N)=O)NC(=O)C(NC(=O)C(CC(C)C)NC)C(O)c7ccc(c(Cl)c7)O6)c6ccc(O)c(c6)-c6c(O)cc(O)cc6C(C(=O)O)NC5=O)OC(CO)C(O)C4O)OC(C)C3O)cc2)cc1` (centres unmarked) [Compound 90, 4-[4-ethylphenyl]benzyl], in that order: 2 µg/mL (≈ 1.12 µM) and 2 µg/mL (≈ 1.12 µM).
In the case of `CNC(CC(C)C)C(=O)NC1C(=O)NC(CC(N)=O)C(=O)NC2C(=O)NC3C(=O)NC(C(=O)NC(C(=O)O)c4cc(O)cc(O)c4-c4cc3ccc4O)C(OC3CC(C)(N)C(O)C(C)O3)c3ccc(c(Cl)c3)Oc3cc2cc(c3OC2OC(CO)C(O)C(O)C2OC2CC(C)(NCc3ccc(Cl)c(C(=O)c4ccccc4)c3Cl)C(O)C(C)O2)Oc2ccc(cc2Cl)C1O` (centres unmarked) [Compound 133, 3-benzoyl-2,4-dichlorobenzyl], the MIC is 1 µg/mL (≈ 0.539 µM) in test [1] and 2 µg/mL (≈ 1.08 µM) in test [2].
As for `CNC(CC(C)C)C(=O)NC1C(=O)NC(CC(N)=O)C(=O)NC2C(=O)NC3C(=O)NC(C(=O)NC(C(=O)O)c4cc(O)cc(O)c4-c4cc3ccc4O)C(OC3CC(C)(N)C(O)C(C)O3)c3ccc(c(Cl)c3)Oc3cc2cc(c3OC2OC(CO)C(O)C(O)C2OC2CC(C)(NCc3ccc(N4CCCCC4C)cc3)C(O)C(C)O2)Oc2ccc(cc2Cl)C1O` (centres unmarked) [Compound 135, 4-[2-methyl-1-piperidino]benzyl], the values for the MIC in test [1] and in test [2] were 0.5 µg/mL (≈ 0.281 µM) and 2 µg/mL (≈ 1.12 µM), respectively.
For `CNC(CC(C)C)C(=O)NC1C(=O)NC(CC(N)=O)C(=O)NC2C(=O)NC3C(=O)NC(C(=O)NC(C(=O)O)c4cc(O)cc(O)c4-c4cc3ccc4O)C(OC3CC(C)(N)C(O)C(C)O3)c3ccc(c(Cl)c3)Oc3cc2cc(c3OC2OC(CO)C(O)C(O)C2OC2CC(C)(NCc3ccc(OCCOC(C)(C)C)cc3)C(O)C(C)O2)Oc2ccc(cc2Cl)C1O` (centres unmarked) [Compound 154, 4-[2-t-butoxyethoxy]benzyl], in that order: 0.5 µg/mL (≈ 0.278 µM) and 4 µg/mL (≈ 2.22 µM).
Regarding `CNC(CC(C)C)C(=O)NC1C(=O)NC(CC(N)=O)C(=O)NC2C(=O)NC3C(=O)NC(C(=O)NC(C(=O)O)c4cc(O)cc(O)c4-c4cc3ccc4O)C(OC3CC(C)(N)C(O)C(C)O3)c3ccc(c(Cl)c3)Oc3cc2cc(c3OC2OC(CO)C(O)C(O)C2OC2CC(C)(NCCCCCCCCc3ccccc3)C(O)C(C)O2)Oc2ccc(cc2Cl)C1O` (centres unmarked) [Compound 176, 8-phenyloctyl], the MIC in test [1] and in test [2] was 2 µg/mL (≈ 1.12 µM) each time.
For the compound `CNC(CC(C)C)C(=O)NC1C(=O)NC(CC(N)=O)C(=O)NC2C(=O)NC3C(=O)NC(C(=O)NC(C(=O)O)c4cc(O)cc(O)c4-c4cc3ccc4O)C(O)c3ccc(c(Cl)c3)Oc3cc2cc(c3OC2OC(CO)C(O)C(O)C2OC2CC(C)(NCc3ccc(-c4ccccc4)cc3)C(O)C(C)O2)Oc2ccc(cc2Cl)C1O` (centres unmarked) [Compound 181, 4-phenylbenzyl], the results for the MIC in test [1] and in test [2] were 2 µg/mL (≈ 1.24 µM) and not above 0.06 µg/mL, respectively.
As for `CCCCCCCCC#CCCCCCCNC1(C)CC(OC2C(Oc3c4cc5cc3Oc3ccc(cc3Cl)C(OC3CC(C)(N)C(O)C(C)O3)C3NC(=O)C(NC(=O)C5NC(=O)C(CC(N)=O)NC(=O)C(NC(=O)C(CC(C)C)NC)C(O)c5ccc(c(Cl)c5)O4)c4ccc(O)c(c4)-c4c(O)cc(O)cc4C(C(=O)O)NC3=O)OC(CO)C(O)C2O)OC(C)C1O` (centres unmarked) [Compound 207, 7-hexadecynyl], the MIC stood at 0.25 µg/mL (≈ 0.138 µM) in test [1] and 1 µg/mL (≈ 0.552 µM) in test [2].
On to `CNC(CC(C)C)C(=O)NC1C(=O)NC(CC(N)=O)C(=O)NC2C(=O)NC3C(=O)NC(C(=O)NC(C(=O)O)c4cc(O)cc(O)c4-c4cc3ccc4O)C(OC3CC(C)(N)C(O)C(C)O3)c3ccc(c(Cl)c3)Oc3cc2cc(c3OC2OC(CO)C(O)C(O)C2OC2CC(C)(NCc3ccc(-c4ccc(OC)c(OC)c4)cc3)C(O)C(C)O2)Oc2ccc(cc2Cl)C1O` (centres unmarked) [Compound 215, 4-[3,4-dimethoxyphenyl]benzyl], for which the MIC in test [1] was 2 µg/mL (≈ 1.1 µM).
In test [1], `CNC(CC(C)C)C(=O)NC1C(=O)NC(CC(N)=O)C(=O)NC2C(=O)NC3C(=O)NC(C(=O)NC(C(=O)O)c4cc(O)cc(O)c4-c4cc3ccc4O)C(OC3CC(C)(N)C(O)C(C)O3)c3ccc(c(Cl)c3)Oc3cc2cc(c3OC2OC(CO)C(O)C(O)C2OC2CC(C)(NCc3ccc(-c4ccc(C(F)(F)F)cc4)cc3)C(O)C(C)O2)Oc2ccc(cc2Cl)C1O` (centres unmarked) [Compound 216, 4-[4-trifluromethylphenyl]benzyl] gave an MIC of 0.5 µg/mL (≈ 0.274 µM).
In the case of `C=CCCCOc1ccc(CNC2(C)CC(OC3C(Oc4c5cc6cc4Oc4ccc(cc4Cl)C(OC4CC(C)(N)C(O)C(C)O4)C4NC(=O)C(NC(=O)C6NC(=O)C(CC(N)=O)NC(=O)C(NC(=O)C(CC(C)C)NC)C(O)c6ccc(c(Cl)c6)O5)c5ccc(O)c(c5)-c5c(O)cc(O)cc5C(C(=O)O)NC4=O)OC(CO)C(O)C3O)OC(C)C2O)cc1` (centres unmarked) [Compound 226, 4-[4-pentenyloxy]benzyl], the figures for the MIC in test [3] and in test [2] were not above 0.06 µg/mL and 1 µg/mL (≈ 0.566 µM), respectively.
For `CC#CCCCCCCCCCCOc1ccc(CNC2(C)CC(OC3C(Oc4c5cc6cc4Oc4ccc(cc4Cl)C(OC4CC(C)(N)C(O)C(C)O4)C4NC(=O)C(NC(=O)C6NC(=O)C(CC(N)=O)NC(=O)C(NC(=O)C(CC(C)C)NC)C(O)c6ccc(c(Cl)c6)O5)c5ccc(O)c(c5)-c5c(O)cc(O)cc5C(C(=O)O)NC4=O)OC(CO)C(O)C3O)OC(C)C2O)cc1` (centres unmarked) [Compound 233, 4-[11-tridecynyloxy]benzyl], the MIC in test [1] was 8 µg/mL (≈ 4.26 µM).
Take `CNC(CC(C)C)C(=O)NC1C(=O)NC(CC(N)=O)C(=O)NC2C(=O)NC3C(=O)NC(C(=O)NC(C(=O)O)c4cc(O)cc(O)c4-c4cc3ccc4O)C(OC3CC(C)(N)C(O)C(C)O3)c3ccc(c(Cl)c3)Oc3cc2cc(c3OC2OC(CO)C(O)C(O)C2OC2CC(C)(NCCCCC#Cc3ccccc3)C(O)C(C)O2)Oc2ccc(cc2Cl)C1O` (centres unmarked) [Compound 235, 6-phenyl-5-hexynyl]: the MIC in test [3] is not above 0.06 µg/mL; in test [2], 1 µg/mL (≈ 0.572 µM).
For `CNC(CC(C)C)C(=O)NC1C(=O)NC(CC(N)=O)C(=O)NC2C(=O)NC3C(=O)NC(C(=O)NC(C(=O)O)c4cc(O)cc(O)c4-c4cc3ccc4O)C(OC3CC(C)(N)C(O)C(C)O3)c3ccc(c(Cl)c3)Oc3cc2cc(c3OC2OC(CO)C(O)C(O)C2OC2CC(C)(NCC3CCC(COCc4ccccc4)CC3)C(O)C(C)O2)Oc2ccc(cc2Cl)C1O` (centres unmarked) [Compound 239], in that order: not above 0.06 µg/mL and 1 µg/mL (≈ 0.553 µM).
